# Measured values published in article PMC12040169 (PLOS Biology, 2025).
# Assay: in vitro
# Details: human, hela cells, % viability
row,SMILES,"viability at 28.5 h, 10 µM"
1,NS(=O)(=O)c1ccc(/N=C/c2ccc(OCc3ccccc3)cc2)cc1 [CBK261585],98.3%
2,O=C(COc1ccc2ccccc2c1)OCC(=O)c1ccc([N+](=O)[O-])cc1 [CBK261586],88.2%
3,COc1cc(CN2CCc3c([nH]c4ccccc34)C2)c([N+](=O)[O-])cc1OC [CBK261588],90.6%
4,O=C(Nc1ccc2nc(-c3ccc(-c4nc5ccc(NC(=O)c6cccs6)cc5[nH]4)cc3)[nH]c2c1)c1cccs1 [CBK261590],87.1%
5,O=C(N/N=C/c1ccc([N+](=O)[O-])cc1)c1ccc(O)cc1O [CBK261591],105%
6,CCOc1ccc(NC(=O)C2C3C=CC(O3)C2C(=O)O)cc1 (stereo not drawn) [CBK261592],91.7%
7,CCOC(=O)c1c(C)n(-c2ccccc2)c2ccc(O)c(CN(C)C)c12 [CBK261593C],91%
8,NS(=O)(=O)c1ccc(/N=C/c2cccc(OCc3ccccc3)c2)cc1 [CBK261594],92.1%
9,O=C(CN1CCCCCC1)N/N=C/c1ccc(F)c(Br)c1 [CBK261596],94.7%
10,O=C(O)CCC(=O)Nc1ccc2c(c1)oc1ccccc12 [CBK261597],86.3%
11,O=C(N/N=C/c1cc([N+](=O)[O-])ccc1Cl)c1ccc(O)c(O)c1 [CBK261599],112%
12,CC(=O)Nc1ccc(C(=O)Nc2ccc(S(N)(=O)=O)cc2)cc1 [CBK261600],95.3%
13,O=[N+]([O-])c1ccc(Cl)c(C2N(Cc3ccccc3)CCN2Cc2ccccc2)c1 [CBK261601],93.4%
14,Cc1cccc(C(=O)Nc2ccc(-c3nnc(-c4ccc(NC(=O)c5cccc(C)c5)cc4)o3)cc2)c1 [CBK261603],106%
15,N#CC1=C(N)Oc2cc(N)ccc2C1c1ccc(-c2ccccc2)cc1 (stereo not drawn) [CBK261605],91.3%
16,COc1cccc(C(=O)NNC(=O)Nc2ccccc2)c1 [CBK261608],91.8%
17,CCOC(=O)c1c(C)n(-c2ccc(OC)cc2)c2ccc(O)c(CN(C)C)c12 [CBK261609C],88%
18,CC(C)CC(C(=O)O)N1C(=O)/C(=C2/C(=O)Nc3ccc(Br)cc32)SC1=S (stereo not drawn) [CBK261610],84.7%
19,O=C(Nc1ccc(-c2nc3cc(-c4nc5cc(NC(=O)c6cccs6)ccc5[nH]4)ccc3[nH]2)cc1)c1cccs1 [CBK261614],97.6%
20,CCN1CCN(CC(=O)N/N=C/c2ccc(F)cc2)CC1 [CBK261615],108%
21,CC(=O)Nc1ccc(/C=N/NC(=O)CN2CCCCCCC2)cc1 [CBK261617],88.8%
22,N#Cc1c(NC(=O)CN2CCCCC2)sc2c1CCCC2 [CBK261619],89.6%

row,SMILES,"viability at 28.5 h, 10 µM"
1,O=P(O)(COc1ccccc1)COc1ccccc1 [CBK261620],88.8%
2,COC(=O)C1=C(C(=O)OC)SC(=C2C(=S)C(C)(C)N(C(=O)c3ccc4ccccc4c3)c3cc(C)ccc32)S1 [CBK261622],116%
3,O=C1/C(=C/NNc2nc3ccccc3s2)Sc2ccccc21 [CBK261627],96.4%
4,Oc1c(-c2ccc(Cl)cc2)c2nc3ccccc3nc2c2ccccc12 [CBK261628],87.7%
5,Oc1ccc(Br)cc1/C=N/c1ccc(-c2cc(-c3ccc(/N=C/c4cc(Br)ccc4O)cc3)ncn2)cc1 [CBK261630],115%
6,Cc1ccccc1NC(=O)/C(=C\c1cccnc1)NC(=O)c1ccccc1 [CBK261632],93.9%
7,Cc1nc2ccccn2c1-c1csc(Nc2ccc(C(=O)O)cc2)n1 [CBK261634B],74.4%
8,O=[N+]([O-])c1ccc(-c2ccc(/N=C/c3ccco3)cc2)cc1 [CBK261639],92.2%
9,O=C(N/N=C/c1ccccc1)c1ccccn1 [CBK261640],92.8%
10,Cc1cccc2cc(/C=C(\C#N)c3nc(-c4cc5ccccc5oc4=O)cs3)c(Cl)nc12 [CBK261642],85.4%
11,CCOC(=O)C1=C(C(=O)OCC)SC(=C2C(=S)C(C)(C)N(C(=O)c3ccc4ccccc4c3)c3ccccc32)S1 [CBK261643],103%
12,Nc1cccc(Oc2ccc(C(c3ccc(Oc4cccc(N)c4)cc3)(C(F)(F)F)C(F)(F)F)cc2)c1 [CBK261645],103%
13,O=C1/C(=C\Nc2cccc3cccnc23)Sc2ccccc21 [CBK261647],93.8%
14,CC1=CC(C)(C)N(CC(=O)c2ccc([N+](=O)[O-])cc2)c2c(C)cccc21 [CBK261652],103%
15,Cc1ccc(S(=O)(=O)c2ccc(C)c(S(=O)(=O)NC3CCCCC3)c2)cc1S(=O)(=O)NC1CCCCC1 [CBK261653],90%
16,N#CC(c1ccc(O)cc1)N1CCOCC1 (stereo not drawn) [CBK261659],116%
17,Oc1c(Cl)cc(Cl)cc1/C=N/c1ccc(-c2nc3ccc(/N=C/c4cc(Cl)cc(Cl)c4O)cc3[nH]2)cc1 [CBK261660],93.4%
18,C/C(=N\NC(=O)c1cccc(Cl)c1)c1ccccc1O [CBK261665],81.4%
19,O=C(COC(=O)c1cc(S(=O)(=O)N2CCCCC2)c(Cl)cc1Cl)c1ccccc1 [CBK261668],101%
20,NNS(=O)(=O)c1ccc(Oc2ccc([N+](=O)[O-])cc2)cc1 [CBK261669],95.9%
21,O=C(Oc1ccc(Cl)cc1)c1cc(S(=O)(=O)N2CCOCC2)ccc1Cl [CBK261670],99.6%
22,NNC(=O)COc1ccc(Cl)cc1Cl [CBK261671],92.6%

row,SMILES,"viability at 28.5 h, 10 µM"
1,CCN(CC)Cn1nc(Nc2ccccc2)n(-c2ccccc2)c1=S [CBK261672],87.6%
2,CCOc1ccccc1/C=N/Nc1ccccc1[N+](=O)[O-] [CBK261673],94.7%
3,CCOC(=O)Cc1nc2ccccc2[nH]1 [CBK261674],102%
4,NC(=O)c1ccccc1/N=C/c1ccc([N+](=O)[O-])o1 [CBK261675],105%
5,Cc1cccc(C(=O)NNC(=O)c2cccc(Cl)c2)c1 [CBK261676],107%
6,NC(=O)c1cccc(NC(=O)/C=C/C(=O)O)c1 [CBK261678],96.8%
7,C(=N\c1ccc(-c2nc3ccc(/N=C/c4ccncc4)cc3[nH]2)cc1)/c1ccncc1 [CBK261681],89.8%
8,O=C1N/C(=N/N=C/c2ccc(O)cc2)SC1Cc1ccccc1[N+](=O)[O-] (stereo not drawn) [CBK261684],91.9%
9,O=C(O)C1CCCCN1Cc1ccccc1 (stereo not drawn) [CBK261687],94.9%
10,O=C(N/N=C/c1cc(Br)c(Br)o1)c1cccc(F)c1 [CBK261688],94.2%
11,Cc1c(C(c2ccc(C(=O)O)cc2)c2c(C)n(C)n(-c3ccccc3)c2=O)c(=O)n(-c2ccccc2)n1C [CBK261691],102%
12,Cc1c(C(c2ccc3ccccc3c2)c2c(C)n(C)n(-c3ccccc3)c2=O)c(=O)n(-c2ccccc2)n1C [CBK261692],95.9%
13,O=C(COc1ccc(Cl)cc1)NNC(=O)Cc1cccc2ccccc12 [CBK261693],91.4%
14,COc1ccc(C(=O)NNC(=O)/C=C/c2ccc(C(C)C)cc2)cc1 [CBK261697],101%
15,COc1ccccc1CNS(=O)(=O)c1ccccc1[N+](=O)[O-] [CBK261699],102%
16,CC(C)(C)c1ccc(C(=O)NNC(=O)C(=O)Nc2ccccc2)cc1 [CBK261701],83.1%
17,O=C(O)c1c(Br)c(Br)c(Br)c(Br)c1C(=O)NCCc1ccccc1 [CBK261702],90.7%
18,COc1ccc(C(=O)NNC(=O)c2cccc(Cl)c2)cc1OC [CBK261704],91.4%
19,O=C(O)C1CCCCC1C(=O)NCCc1ccccc1 (stereo not drawn) [CBK261707],94%
20,O=C(O)CCCC(=O)NCc1cccnc1 [CBK261708],106%
21,O=C(NNc1ccc([N+](=O)[O-])cc1)c1cccs1 [CBK261709],92.1%
22,Brc1ccc(-c2nc(NCCCN3CCOCC3)cc(-c3ccccc3)n2)cc1 [CBK261712],90.1%

row,SMILES,"viability at 28.5 h, 10 µM"
1,Oc1cc(-c2ccccc2)nc(NNc2ccccc2)n1 [CBK261716],96.6%
2,O=C1CC(c2ccccc2)=NN1c1nc(-c2ccccc2)cc(-c2ccc(F)cc2)n1 [CBK261717],92.4%
3,Cc1ccc(O)c(NC(=O)Cn2nc([N+](=O)[O-])c(Br)c2C)c1 [CBK261718],92.2%
4,Cc1c(Cl)c([N+](=O)[O-])nn1CC(=O)N1CCN(C)CC1 [CBK261719],89.4%
5,CC1CCCCN1S(=O)(=O)c1cccc2nonc12 (stereo not drawn) [CBK261723],94.5%
6,CCOc1ccc(C(=O)NCCC(=O)O)cc1 [CBK261725D],92.2%
7,O=S(=O)(c1ccc(Oc2ccc(S(=O)(=O)N3CCCCCC3)cc2)cc1)N1CCCCCC1 [CBK261729],99%
8,COc1cc(CN2CCCCC2CO)c([N+](=O)[O-])cc1OC (stereo not drawn) [CBK261730],85.1%
9,COc1cc(CN(C)CCc2ccccn2)c([N+](=O)[O-])cc1OC [CBK261737G],88.3%
10,Cc1cc(I)ccc1NCC(=O)NN [CBK261738],91.1%
11,O=C(NCCCn1ccnc1)c1cccs1 [CBK261740],90.2%
12,COc1ccccc1CN(C)CCc1ccccn1 [CBK261741G],87.2%
13,COc1ccc(C(=O)O)cc1S(=O)(=O)N1CCCCCC1 [CBK261742],99.2%
14,CN(C1CCCCC1)S(=O)(=O)c1cc(Cl)ccc1Cl [CBK261744],118%
15,COc1ccc(NC(=O)CSc2nc(O)cc(=O)[nH]2)cc1 [CBK261747],88.8%
16,CC(=O)c1ccc(N2CCN(Cc3cc(C(C)(C)C)c(O)c(C(C)(C)C)c3)CC2)cc1 [CBK261749],87.2%
17,[O-][S+](CC(O)COc1ccc(Cl)cc1)c1ccccn1 (stereo not drawn) [CBK261750],99.9%
18,O=[N+]([O-])c1ccccc1S(=O)(=O)NCc1ccccn1 [CBK261751],92.6%
19,O=[N+]([O-])c1ccc(/C=N/C23CN4CN(CN(C4)C2)C3)s1 [CBK261752],105%

# Same assay, conditions: human, hela cells, % viability, bulk resorufin, single well
row,SMILES,"viability at 28.5 h, 10 µM"
1,O=C1NC(=O)C(=CNCCc2c[nH]c3ccccc23)C(=O)N1 [CBK261635],93.2%
2,O=C1NC(=O)N(c2ccc(Cl)cc2)C(=O)/C1=C\NCCCO [CBK261648],90.2%
